{
  "source": "patent US6822097B1",
  "about": "“Compounds and methods of uses” (Amgen, Inc., priority 2002, dated 2004)",
  "note": "Where a name gives a salt, the structure may show the parent alone.",
  "data": [
    {"values": [
      {"compound": "O=C(Nc1nc(-c2cc3ccccc3[nH]c2=O)cs1)c1ccccc1", "note": "(as salt: HCl) [Example 71, N-[4-(2-Oxo(3-hydroquinolyl))(1,3-thiazol-2-yl)]benzamide]", "melting point": "309 to 311 °C (dec.)"},
      {"compound": "Nc1nc(-c2cc3ccccc3[nH]c2=O)cs1", "note": "(as salt: hydrobromid) [Example 66, 3-(2-Amino-1,3-thiazol-4-yl)hydroquinolin-2-one]", "melting point": "> 300 °C"},
      {"compound": "O=c1[nH]c2ccccc2cc1-c1csc(Nc2ccccn2)n1", "note": "(as salt: hydrobromid) [Example 67, 3-[2-(2-pyridylamino)-1,3-thiazol-4-yl]hydroquinolin-2-one]", "melting point": "307 to 312 °C (dec.)"},
      {"compound": "O=c1[nH]c2ccccc2cc1-c1csc(Nc2cccnc2)n1", "note": "(as salt: hydrobromid) [Example 68, 3-[2-(3-Pyridylamino)-1,3-thiazol-4-yl]hydroquinolin-2-one]", "melting point": "> 300 °C"},
      {"compound": "O=c1[nH]c2ccccc2cc1-c1csc(Nc2ccncc2)n1", "note": "(as salt: hydrobromid) [Example 69, 3-[2-(4-Pyridylamino)-1,3-thiazol-4-yl]hydroquinolin-2-one]", "melting point": "> 300 °C"},
      {"compound": "CNc1nc(-c2cc3ccccc3[nH]c2=O)cs1", "note": "(as salt: hydrobromid) [Example 75, 3-[2-(Methylamino)-1,3-thiazol-4-yl]hydroquinolin-2-one hydrobromide]", "melting point": "292 to 293 °C"},
      {"compound": "O=c1[nH]c2ccccc2cc1-c1csc(NCc2ccco2)n1", "note": "(as salt: hydrobromid) [Example 79, 3-{2-[(2-Furylmethyl)amino]-1,3-thiazol-4-yl}hydroquinolin-2-one hydrobromide]", "melting point": "221 to 224 °C (dec.)"},
      {"compound": "O=c1[nH]c2ccccc2cc1-c1csc(NCCN2CCOCC2)n1", "note": "(as salt: hydrobromid) [Example 80, 3-{2-[(2-Morpholin-4-ylethyl)amino]-1,3-thiazol-4-yl}hydroquinolin-2-one hydrobromide]", "melting point": "237 to 239 °C"},
      {"compound": "Nc1c(-c2csc(-c3ccncc3)n2)c(=O)[nH]c2ccccc12", "note": "(as salt: salt) [Example 6, 3-[2-(4-Pyridyl)-4-thiazolyl]-4-amino-2(1H)-quinolinone]", "melting point": "> 250 °C"},
      {"compound": "O=c1[nH]c2ccccc2cc1-c1nc(-c2ccncc2)cs1", "note": "(as salt: salt) [Example 111, 3-(4-Pyridin-4-yl-thiazol-2-yl)-1H-quinolin-2-one]", "melting point": "> 300 °C"},
      {"compound": "O=c1[nH]c2ccccc2cc1-c1csc(-c2ccncc2)n1", "note": "[Example 1, 3-[2-(4-Pyridyl)-4-thiazolyl]-2(1H)-quinolinone]", "melting point": "241 to 243 °C"},
      {"compound": "O=c1[nH]c2ccccc2cc1-c1csc(-c2cccnc2)n1", "note": "[Example 2, 3-[2-(3-Pyridyl)-4-thiazolyl]-2(1H)-quinolinone]", "melting point": "230 to 232 °C"},
      {"compound": "Cc1c(-c2csc(-c3ccncc3)n2)c(=O)[nH]c2ccccc12", "note": "[Example 3, 3-[2-(4-Pyridyl)-4-thiazolyl]-4-methyl-2(1H)-quinolinone]", "melting point": "> 250 °C"},
      {"compound": "O=c1[nH]c2ccccc2c(-c2ccccc2)c1-c1csc(-c2ccncc2)n1", "note": "[Example 4, 3-[2-(4-Pyridyl)-4-thiazolyl]-4-phenyl-2(1H)-quinolinone]", "melting point": "> 250 °C"},
      {"compound": "O=c1[nH]c2ccccc2c(O)c1-c1csc(-c2ccncc2)n1", "note": "[Example 5, 3-[2-(4-pyridyl)-4-thiazolyl]-4-hydroxy-2(1H)-quinolinone]", "melting point": "> 250 °C"},
      {"compound": "Nc1c(-c2csc(-c3ccncc3)n2)c(=O)[nH]c2ccc(N3CCCCC3)cc12", "note": "[Example 7, 3-[2-(4-Pyridyl)-4-thiazolyl]-4-amino-6-(1-piperidinyl)-2(1H) -quinolinone]", "melting point": "199 to 202 °C"},
      {"compound": "COC(=O)c1cccc2[nH]c(=O)c(-c3csc(-c4ccncc4)n3)cc12", "note": "[Example 8, 1,2-Dihydro-2-oxo-3-[2-(4-pyridyl)-4-thiazolyl]-5-quinolinecarboxylic acid methyl ester]", "melting point": "> 250 °C"},
      {"compound": "O=c1[nH]c2cc3c(cc2cc1-c1csc(-c2cccnc2)n1)OCO3", "note": "[Example 9, 3-[2-(3-Pyridyl)-4-thiazolyl]-6,7-(methylenedioxyl)-2(1H)-quinolinone]", "melting point": "> 220 °C"},
      {"compound": "O=C(O)c1cccc2[nH]c(=O)c(-c3csc(-c4ccncc4)n3)cc12", "note": "[Example 10, 1,2-Dihydro-2-oxo-3-[2-(4-pyridyl)-4-thiazolyl]-5-quinolinecarboxylic acid]", "melting point": "> 250 °C"},
      {"compound": "CCN(CC)C(=O)c1cccc2[nH]c(=O)c(-c3csc(-c4ccncc4)n3)cc12", "note": "[Example 11, N,N-Diethyl-1,2-dihydro-2-oxo-3-[2-(4-pyridyl)-4-thiazolyl]-5-quinolinecarboxamide]", "melting point": "210 °C (dec.)"},
      {"compound": "O=c1[nH]c2cc3c(cc2cc1-c1csc(-c2ccncc2)n1)OCO3", "note": "[Example 18, 7-(2-(4-Pyridinyl)-1,3-thiazol-4-yl)[1,3]dioxolo[4,5-g]quinolin-6(5H)-one]", "melting point": "167 to 169 °C"},
      {"compound": "COc1cc2[nH]c(=O)c(-c3csc(-c4ccncc4)n3)c(N)c2cc1OC", "note": "[Example 19, 3-[2-(4-pyridyl)-4-thiazolyl]-4-amino-6,7-dimethoxy-2(1H)-quinolinone]", "melting point": "> 250 °C"},
      {"compound": "COc1cc2[nH]c(=O)c(-c3csc(-c4cccnc4)n3)c(N)c2cc1OC", "note": "[Example 20, 3-[2-(3-Pyridyl)-4-thiazolyl]-4-amino-6,7-dimethoxy-2(1H)-quinolinone]", "melting point": "> 250 °C"},
      {"compound": "Nc1c(-c2csc(-c3ccncc3)n2)c(=O)[nH]c2ccc(Cl)cc12", "note": "[Example 21, 3-[2-(4-Pyridyl)-4-thiazolyl]-4-amino-6-chloro-2(1H)-quinolinone]", "melting point": "> 220 °C"},
      {"compound": "CN1CCN(c2ccc3[nH]c(=O)c(-c4csc(-c5ccncc5)n4)c(N)c3c2)CC1", "note": "[Example 22, 3-[2-(4-Pyridyl)-4-thiazolyl]-4-amino-6-(4-methyl-1-piperazinyl)-2(1H)-quinolinone]", "melting point": "> 220 °C"},
      {"compound": "Nc1nc(-c2c(-c3ccccc3)c3ccccc3[nH]c2=O)cs1", "note": "[Example 23, 3-(2-Amino-4-thiazolyl)-4-phenyl-2(1H)-quinolinone]", "melting point": "> 220 °C"},
      {"compound": "O=c1[nH]c2ccccc2cc1-c1csc(NS(=O)(=O)c2ccccc2)n1", "note": "[Example 70, 3-{2-[(Phenylsulfonyl)amino]-1,3-thiazol-4-yl}hydroquinolin-2-one]", "melting point": "> 300 °C"},
      {"compound": "O=C(Cc1ccccc1)Nc1nc(-c2cc3ccccc3[nH]c2=O)cs1", "note": "[Example 72, N-[4-(2-Oxo(3-hydroquinolyl))(1,3-thiazol-2-yl)]-2-phenylacetamide]", "melting point": "272 to 278 °C"},
      {"compound": "COc1ccc(CC(=O)Nc2nc(-c3cc4ccccc4[nH]c3=O)cs2)c(OC)c1", "note": "[Example 73, 2-(2,4-Dimethoxyphenyl)-N-[4-(2-oxo(3-hydroquinolyl))(1,3-thiazol-2-yl)]acetamide]", "melting point": "295 to 300 °C (dec.)"},
      {"compound": "O=c1[nH]c2ccccc2cc1-c1csc(NS(=O)(=O)c2ccc(OC(F)(F)F)cc2)n1", "note": "[Example 74, 3-[2-({[4-(Trifluoromethoxy)phenyl]sulfonyl}amino)-1,3-thiazol-4-yl]hydroquinolin-2-one]", "melting point": "> 300 °C"},
      {"compound": "CN(C(=O)c1ccccc1)c1nc(-c2cc3ccccc3[nH]c2=O)cs1", "note": "[Example 76, N-Methyl-N-[4-(2-oxo(3-hydroquinolyl))(1,3-thiazol-2-yl)]benzamide]", "melting point": "> 300 °C"},
      {"compound": "O=c1[nH]c2ccccc2cc1-c1csc(Nc2ccccc2F)n1", "note": "[Example 78, 3-{2-[(2-Fluorophenyl)amino]-1,3-thiazol-4-yl}hydroquinolin-2-one]", "melting point": "277 to 278 °C (dec.)"},
      {"compound": "CS(=O)(=O)c1ccc(-c2csc(-c3cc4ccccc4[nH]c3=O)n2)cc1", "note": "[Example 112, 3-{4-[4-(Methylsulfonyl)phenyl]-1,3-thiazol-2-yl}hydroquinolin-2-one]", "melting point": "> 300 °C"},
      {"compound": "N#Cc1ccc(-c2csc(-c3cc4ccccc4[nH]c3=O)n2)cc1", "note": "[Example 113, 4-[2-(2-Oxo-3-hydroquinolyl)-1,3-thiazol-4-yl]benzenecarbonitrile]", "melting point": "> 300 °C"},
      {"compound": "O=c1[nH]c2ccccc2cc1-c1nc(-c2cccc([N+](=O)[O-])c2)cs1", "note": "[Example 114, 3-[4-(3-Nitrophenyl)-1,3-thiazol-2-yl]hydroquinolin-2-one]", "melting point": "> 300 °C"},
      {"compound": "COc1cccc(-c2csc(-c3cc4ccccc4[nH]c3=O)n2)c1", "note": "[Example 115, 3-[4-(3-Methoxyphenyl)-1,3-thiazol-2-yl]hydroquinolin-2-one]", "melting point": "279 to 282 °C"},
      {"compound": "Cc1onc(-c2ccccc2)c1-c1csc(-c2cc3ccccc3[nH]c2=O)n1", "note": "[Example 116, 3-[4-(5-Methyl-3-phenylisoxazol-4-yl)-1,3-thiazol-2-yl]hydroquinolin-2-one]", "melting point": "242 to 244 °C"},
      {"compound": "O=c1[nH]c2ccccc2cc1-c1csc(N(Cc2ccccc2)S(=O)(=O)c2ccccc2)n1", "note": "[Example 8728, N-Benzyl-N-[4-(2-oxo-1,2-dihydro-quinolin-3-yl)-thiazol-2-yl]-benzenesulfonamide]", "melting point": "228 to 232 °C"},
      {"compound": "C=CCN(c1nc(-c2cc3ccccc3[nH]c2=O)cs1)S(=O)(=O)c1ccccc1", "note": "[Example 8729, N-Allyl-N-[4-(2-oxo-1,2-dihydro-quinolin-3-yl)-thiazol-2-yl]-benzenesulfonamide]", "melting point": "214 to 216 °C"},
      {"compound": "CN(c1nc(-c2cc3ccccc3[nH]c2=O)cs1)S(=O)(=O)c1ccc(Br)cc1", "note": "[Example 8730, 4-Bromo-N-methyl-N-[4-(2-oxo-1,2-dihydro-quinolin-3-yl)-thiazol-2-yl]-benzenesulfonamide]", "melting point": "280 to 282 °C"},
      {"compound": "CN(c1nc(-c2cc3ccccc3[nH]c2=O)cs1)S(=O)(=O)c1cccc(F)c1", "note": "[Example 8731, 3-Fluoro-N-methyl-N-[4-(2-oxo-1,2-dihydro-quinolin-3-yl)-thiazol-2-yl]-benzenesulfonamide]", "melting point": "247 to 249 °C"},
      {"compound": "CN(c1nc(-c2cc3ccccc3[nH]c2=O)cs1)S(=O)(=O)c1cn(C)cn1", "note": "[Example 8732, N,1-Dimethyl-N-(4-(2-oxo-1,2-dihydro-3-quinolinyl)-1,3-thiazol-2-yl)-1H-imidazole-4-sulfonamide]", "melting point": "> 300 °C"},
      {"compound": "COC(=O)c1ccc2cc(-c3csc(N(C)S(=O)(=O)c4ccccc4)n3)c(=O)[nH]c2c1", "note": "[Example 8763]", "melting point": "> 300 °C"}
    ]}
  ]
}
